The source of these data is the kinase profiling compilation of Christmann-Franck et al. (2016).

Chain of DAPK1 (human) (P53355 whole entry, looked up): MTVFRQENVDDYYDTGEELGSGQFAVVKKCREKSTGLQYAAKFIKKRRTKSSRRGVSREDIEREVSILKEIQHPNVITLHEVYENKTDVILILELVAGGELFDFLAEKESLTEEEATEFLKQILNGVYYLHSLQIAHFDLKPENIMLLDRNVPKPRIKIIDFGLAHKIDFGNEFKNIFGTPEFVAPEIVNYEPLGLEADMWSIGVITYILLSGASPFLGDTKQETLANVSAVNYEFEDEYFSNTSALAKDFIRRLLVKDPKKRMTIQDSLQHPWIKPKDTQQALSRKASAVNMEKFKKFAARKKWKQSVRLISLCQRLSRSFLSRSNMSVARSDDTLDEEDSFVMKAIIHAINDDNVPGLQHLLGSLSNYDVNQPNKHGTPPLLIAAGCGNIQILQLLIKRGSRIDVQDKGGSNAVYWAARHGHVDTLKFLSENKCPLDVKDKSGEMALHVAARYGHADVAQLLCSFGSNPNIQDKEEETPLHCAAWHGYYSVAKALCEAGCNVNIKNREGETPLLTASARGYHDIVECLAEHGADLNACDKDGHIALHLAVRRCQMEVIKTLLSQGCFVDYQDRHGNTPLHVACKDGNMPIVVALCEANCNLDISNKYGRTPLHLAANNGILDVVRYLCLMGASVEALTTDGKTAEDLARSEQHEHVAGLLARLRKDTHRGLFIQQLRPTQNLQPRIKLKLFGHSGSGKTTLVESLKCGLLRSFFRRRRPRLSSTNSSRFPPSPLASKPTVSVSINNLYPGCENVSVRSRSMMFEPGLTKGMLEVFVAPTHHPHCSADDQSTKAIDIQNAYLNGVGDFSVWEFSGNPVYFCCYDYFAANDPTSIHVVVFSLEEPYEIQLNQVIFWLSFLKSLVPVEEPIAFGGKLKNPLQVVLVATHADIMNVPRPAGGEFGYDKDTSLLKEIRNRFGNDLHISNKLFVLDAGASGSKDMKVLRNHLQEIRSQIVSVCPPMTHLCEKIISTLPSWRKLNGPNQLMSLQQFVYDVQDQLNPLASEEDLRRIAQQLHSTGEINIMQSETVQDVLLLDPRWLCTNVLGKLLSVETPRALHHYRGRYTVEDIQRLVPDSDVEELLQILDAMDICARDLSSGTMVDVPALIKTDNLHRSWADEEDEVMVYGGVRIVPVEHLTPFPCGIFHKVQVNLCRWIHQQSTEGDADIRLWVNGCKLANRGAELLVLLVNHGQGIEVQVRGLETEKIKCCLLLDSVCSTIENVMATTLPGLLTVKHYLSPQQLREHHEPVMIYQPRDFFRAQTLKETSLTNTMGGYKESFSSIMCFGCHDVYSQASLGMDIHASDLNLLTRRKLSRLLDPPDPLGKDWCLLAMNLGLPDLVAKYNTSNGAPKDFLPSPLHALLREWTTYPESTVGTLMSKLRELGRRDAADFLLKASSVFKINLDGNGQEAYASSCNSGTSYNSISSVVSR
Chain of MYLK (human) (Q15746 whole entry, looked up): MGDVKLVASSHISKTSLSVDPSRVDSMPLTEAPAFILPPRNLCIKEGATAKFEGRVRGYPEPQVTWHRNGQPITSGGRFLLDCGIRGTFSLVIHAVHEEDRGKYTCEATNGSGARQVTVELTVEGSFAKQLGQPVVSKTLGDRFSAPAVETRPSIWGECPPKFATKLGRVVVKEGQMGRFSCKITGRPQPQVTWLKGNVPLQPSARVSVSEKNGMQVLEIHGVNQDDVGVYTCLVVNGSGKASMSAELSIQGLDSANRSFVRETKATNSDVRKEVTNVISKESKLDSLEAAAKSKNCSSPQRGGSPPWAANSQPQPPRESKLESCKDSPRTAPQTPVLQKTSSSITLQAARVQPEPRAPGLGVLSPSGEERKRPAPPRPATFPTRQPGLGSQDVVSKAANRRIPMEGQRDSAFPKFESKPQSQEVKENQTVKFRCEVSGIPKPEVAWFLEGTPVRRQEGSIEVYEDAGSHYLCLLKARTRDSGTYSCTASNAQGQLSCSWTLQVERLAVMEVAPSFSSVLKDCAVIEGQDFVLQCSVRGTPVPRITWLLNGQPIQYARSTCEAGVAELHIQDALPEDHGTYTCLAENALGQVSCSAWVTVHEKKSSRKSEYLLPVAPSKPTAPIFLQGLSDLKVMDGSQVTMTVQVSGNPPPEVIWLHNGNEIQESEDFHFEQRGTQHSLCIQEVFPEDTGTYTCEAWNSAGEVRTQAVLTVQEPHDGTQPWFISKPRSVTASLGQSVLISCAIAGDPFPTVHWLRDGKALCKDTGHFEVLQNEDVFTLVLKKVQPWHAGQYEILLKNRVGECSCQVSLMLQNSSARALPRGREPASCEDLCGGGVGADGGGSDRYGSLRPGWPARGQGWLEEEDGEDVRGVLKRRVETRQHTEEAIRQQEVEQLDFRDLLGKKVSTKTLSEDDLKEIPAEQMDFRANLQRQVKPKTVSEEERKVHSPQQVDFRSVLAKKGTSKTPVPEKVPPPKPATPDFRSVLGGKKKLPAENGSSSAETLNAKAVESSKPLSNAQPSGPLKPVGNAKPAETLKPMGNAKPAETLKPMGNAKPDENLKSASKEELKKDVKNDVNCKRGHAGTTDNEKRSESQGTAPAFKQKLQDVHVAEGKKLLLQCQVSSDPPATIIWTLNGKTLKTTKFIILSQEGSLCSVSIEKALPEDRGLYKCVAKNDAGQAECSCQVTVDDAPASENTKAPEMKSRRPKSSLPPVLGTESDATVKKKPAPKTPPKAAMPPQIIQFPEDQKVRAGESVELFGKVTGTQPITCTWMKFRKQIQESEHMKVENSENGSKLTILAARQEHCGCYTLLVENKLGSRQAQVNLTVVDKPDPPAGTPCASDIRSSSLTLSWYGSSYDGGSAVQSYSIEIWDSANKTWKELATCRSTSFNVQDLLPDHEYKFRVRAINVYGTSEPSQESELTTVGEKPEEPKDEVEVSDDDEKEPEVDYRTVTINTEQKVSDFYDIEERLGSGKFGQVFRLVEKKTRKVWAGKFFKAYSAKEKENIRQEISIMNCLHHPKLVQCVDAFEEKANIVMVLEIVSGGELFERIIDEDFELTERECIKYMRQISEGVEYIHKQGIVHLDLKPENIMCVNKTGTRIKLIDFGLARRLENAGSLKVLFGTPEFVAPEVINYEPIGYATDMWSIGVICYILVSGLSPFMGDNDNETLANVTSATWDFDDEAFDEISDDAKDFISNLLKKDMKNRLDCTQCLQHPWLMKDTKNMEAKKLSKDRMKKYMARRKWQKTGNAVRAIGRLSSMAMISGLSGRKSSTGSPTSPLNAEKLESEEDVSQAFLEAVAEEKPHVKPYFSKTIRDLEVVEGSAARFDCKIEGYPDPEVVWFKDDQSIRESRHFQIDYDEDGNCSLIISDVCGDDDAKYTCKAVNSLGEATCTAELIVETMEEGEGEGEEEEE

The first assay concerns the target KIT (human) (UniProt P10721). Briefly: radiometric filter-binding kinase assay, Kinase HotSpot. The settings on record: compound 0.5 µM; ATP 10 µM.
As usually defined, the residual activity is the signal under treatment as a percentage of the control signal. Turning to `O=C1NC(=O)C(c2c[nH]c3ccccc23)=C1c1c[nH]c2ccccc12`, the residual activity came out at 68.5%.

As for `CN(C)C[C@H]1CCn2c(c(C3=C(c4cn(C)c5ccccc45)C(=O)NC3=O)c3ccccc32)C1`, the residual activity worked out at 92.7%.

Take `Cn1nc2c3c(cccc31)C(=O)c1ccccc1-2`: the residual activity worked out at 86.4%.

In the next assay the target is ABL1 (human) (UniProt P00519). The assay is described as above. The settings on record: compound 0.5 µM; ATP 10 µM.
For the compound `O=C1NC(=O)C(c2c[nH]c3ccccc23)=C1c1c[nH]c2ccccc12`, the residual activity was found to be 89.1%.

With `CN(C)C[C@H]1CCn2c(c(C3=C(c4cn(C)c5ccccc45)C(=O)NC3=O)c3ccccc32)C1`, the residual activity stood at 98%.

Take `Cn1nc2c3c(cccc31)C(=O)c1ccccc1-2`: the residual activity came to 99.1%.

The next assay has as its target FGFR1 (human) (UniProt P11362). Described as above. To be noted: compound 0.5 µM; ATP 10 µM.
Take `O=C1NC(=O)C(c2c[nH]c3ccccc23)=C1c1c[nH]c2ccccc12`: the residual activity amounted to 41.4%.

For the compound `CN(C)C[C@H]1CCn2c(c(C3=C(c4cn(C)c5ccccc45)C(=O)NC3=O)c3ccccc32)C1`, the residual activity came to 87.8%.

Regarding `Cn1nc2c3c(cccc31)C(=O)c1ccccc1-2`, the residual activity came out at 99.5%.

A further assay addresses DAPK1 (human) (UniProt P53355). The description is as above. To be noted: compound 0.5 µM; ATP 10 µM.
For `O=C1NC(=O)C(c2c[nH]c3ccccc23)=C1c1c[nH]c2ccccc12`, the residual activity amounted to 79.4%.

Turning to `CN(C)C[C@H]1CCn2c(c(C3=C(c4cn(C)c5ccccc45)C(=O)NC3=O)c3ccccc32)C1`, the residual activity was found to be 94.1%.

Take `Cn1nc2c3c(cccc31)C(=O)c1ccccc1-2`: the residual activity was 86.4%.

For another assay, the target named is CDK2 CCNE1 (human) (UniProt P24941+P24864). The assay is described as above. The settings on record: compound 0.5 µM; ATP 10 µM.
With `O=C1NC(=O)C(c2c[nH]c3ccccc23)=C1c1c[nH]c2ccccc12`, the residual activity is 71.4%.

In the case of `CN(C)C[C@H]1CCn2c(c(C3=C(c4cn(C)c5ccccc45)C(=O)NC3=O)c3ccccc32)C1`, the residual activity came to 64.4%.

As for `Cn1nc2c3c(cccc31)C(=O)c1ccccc1-2`, the residual activity turned out to be 89.4%.

The target of the next assay is IRAK1 (human) (UniProt P51617). The description is as above. The settings on record: compound 0.5 µM; ATP 10 µM.
For the compound `O=C1NC(=O)C(c2c[nH]c3ccccc23)=C1c1c[nH]c2ccccc12`, the residual activity was 89.6%.

For the compound `CN(C)C[C@H]1CCn2c(c(C3=C(c4cn(C)c5ccccc45)C(=O)NC3=O)c3ccccc32)C1`, the residual activity is 127%.

With `Cn1nc2c3c(cccc31)C(=O)c1ccccc1-2`, the residual activity came out at 99.6%.

The next assay concerns the target MYLK (human) (UniProt Q15746). The description is as above. The settings on record: compound 0.5 µM; ATP 10 µM.
For `O=C1NC(=O)C(c2c[nH]c3ccccc23)=C1c1c[nH]c2ccccc12`, the residual activity came out at 74.4%.

With `CN(C)C[C@H]1CCn2c(c(C3=C(c4cn(C)c5ccccc45)C(=O)NC3=O)c3ccccc32)C1`, the residual activity turned out to be 84%.

In the case of `Cn1nc2c3c(cccc31)C(=O)c1ccccc1-2`, the residual activity was 77.4%.

The target in another assay is PRKD3 (human) (UniProt O94806). The assay is described as above. The settings on record: compound 0.5 µM; ATP 10 µM.
With `O=C1NC(=O)C(c2c[nH]c3ccccc23)=C1c1c[nH]c2ccccc12`, the residual activity was 88.4%.

As for `CN(C)C[C@H]1CCn2c(c(C3=C(c4cn(C)c5ccccc45)C(=O)NC3=O)c3ccccc32)C1`, the residual activity turned out to be 93.6%.

Take `Cn1nc2c3c(cccc31)C(=O)c1ccccc1-2`: the residual activity was 65.5%.

A further assay has as its target CDK4 CCND3 (human) (UniProt P30281+P11802). Described as above. To be noted: compound 0.5 µM; ATP 10 µM.
On to `O=C1NC(=O)C(c2c[nH]c3ccccc23)=C1c1c[nH]c2ccccc12`, for which the residual activity came out at 89.8%.

`CN(C)C[C@H]1CCn2c(c(C3=C(c4cn(C)c5ccccc45)C(=O)NC3=O)c3ccccc32)C1`: the residual activity came out at 99.7%.

For `Cn1nc2c3c(cccc31)C(=O)c1ccccc1-2`, the residual activity came out at 92.4%.

For the next assay, the target named is FLT3 (human) (UniProt P36888). Described as above. The settings on record: compound 0.5 µM; ATP 10 µM.
In the case of `O=C1NC(=O)C(c2c[nH]c3ccccc23)=C1c1c[nH]c2ccccc12`, the residual activity was 16.1%.

`CN(C)C[C@H]1CCn2c(c(C3=C(c4cn(C)c5ccccc45)C(=O)NC3=O)c3ccccc32)C1`: the residual activity turned out to be 37.1%.

Turning to `Cn1nc2c3c(cccc31)C(=O)c1ccccc1-2`, the residual activity stood at 59.3%.

The target of the next assay is BLK (human) (UniProt P51451). The description is as above. The settings on record: compound 0.5 µM; ATP 10 µM.
On to `O=C1NC(=O)C(c2c[nH]c3ccccc23)=C1c1c[nH]c2ccccc12`, for which the residual activity came to 93.7%.

For `CN(C)C[C@H]1CCn2c(c(C3=C(c4cn(C)c5ccccc45)C(=O)NC3=O)c3ccccc32)C1`, the residual activity was 103%.

Regarding `Cn1nc2c3c(cccc31)C(=O)c1ccccc1-2`, the residual activity was found to be 106%.

In another assay the target is MAP3K7 TAB1 (human) (UniProt O43318+Q15750). The assay is described as above. To be noted: compound 0.5 µM; ATP 10 µM.
For `O=C1NC(=O)C(c2c[nH]c3ccccc23)=C1c1c[nH]c2ccccc12`, the residual activity came out at 97%.

In the case of `CN(C)C[C@H]1CCn2c(c(C3=C(c4cn(C)c5ccccc45)C(=O)NC3=O)c3ccccc32)C1`, the residual activity was determined as 95.3%.

Consider `Cn1nc2c3c(cccc31)C(=O)c1ccccc1-2`, for which the residual activity is 83.9%.

For a further assay, the target named is STK11 (human) (UniProt Q15831). The assay is described as above. The settings on record: compound 0.5 µM; ATP 10 µM.
With `O=C1NC(=O)C(c2c[nH]c3ccccc23)=C1c1c[nH]c2ccccc12`, the residual activity came to 107%.

`CN(C)C[C@H]1CCn2c(c(C3=C(c4cn(C)c5ccccc45)C(=O)NC3=O)c3ccccc32)C1`: the residual activity is 91.9%.

Regarding `Cn1nc2c3c(cccc31)C(=O)c1ccccc1-2`, the residual activity turned out to be 87.7%.

The target of another assay is EPHA2 (human) (UniProt P29317). The assay is described as above. The settings on record: compound 0.5 µM; ATP 10 µM.
Consider `O=C1NC(=O)C(c2c[nH]c3ccccc23)=C1c1c[nH]c2ccccc12`, for which the residual activity was determined as 91.6%.

For the compound `CN(C)C[C@H]1CCn2c(c(C3=C(c4cn(C)c5ccccc45)C(=O)NC3=O)c3ccccc32)C1`, the residual activity was 102%.

In the case of `Cn1nc2c3c(cccc31)C(=O)c1ccccc1-2`, the residual activity came to 104%.

The next assay deals with PNCK (human) (UniProt Q6P2M8). Described as above. To be noted: compound 0.5 µM; ATP 10 µM.
Take `O=C1NC(=O)C(c2c[nH]c3ccccc23)=C1c1c[nH]c2ccccc12`: the residual activity came out at 93.3%.

As to `CN(C)C[C@H]1CCn2c(c(C3=C(c4cn(C)c5ccccc45)C(=O)NC3=O)c3ccccc32)C1`, the residual activity stood at 95.2%.

On to `Cn1nc2c3c(cccc31)C(=O)c1ccccc1-2`, for which the residual activity was 101%.

Another assay deals with IKBKB (human) (UniProt O14920). The description is as above. To be noted: compound 0.5 µM; ATP 10 µM.
Chain of IKBKB (human) (O14920 whole entry, looked up): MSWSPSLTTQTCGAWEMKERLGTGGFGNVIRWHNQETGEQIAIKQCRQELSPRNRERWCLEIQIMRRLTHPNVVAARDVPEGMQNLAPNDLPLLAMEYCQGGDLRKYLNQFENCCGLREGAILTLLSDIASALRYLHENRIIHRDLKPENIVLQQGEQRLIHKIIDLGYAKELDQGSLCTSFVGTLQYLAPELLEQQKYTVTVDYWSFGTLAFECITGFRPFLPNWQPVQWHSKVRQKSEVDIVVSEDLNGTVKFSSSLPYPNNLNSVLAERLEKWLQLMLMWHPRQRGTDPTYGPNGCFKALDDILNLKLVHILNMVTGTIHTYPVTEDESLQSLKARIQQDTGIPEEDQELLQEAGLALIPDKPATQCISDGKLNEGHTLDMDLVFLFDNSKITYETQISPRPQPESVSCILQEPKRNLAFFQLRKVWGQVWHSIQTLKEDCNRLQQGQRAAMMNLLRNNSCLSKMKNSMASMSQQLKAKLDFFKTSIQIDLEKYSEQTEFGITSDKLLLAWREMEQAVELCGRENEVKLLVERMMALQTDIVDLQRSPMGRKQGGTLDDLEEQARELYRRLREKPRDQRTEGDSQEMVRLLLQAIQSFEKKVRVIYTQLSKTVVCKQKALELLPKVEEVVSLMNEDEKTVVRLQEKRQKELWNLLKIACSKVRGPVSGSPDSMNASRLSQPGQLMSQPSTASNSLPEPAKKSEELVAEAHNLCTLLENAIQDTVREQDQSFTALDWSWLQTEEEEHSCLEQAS
Regarding `O=C1NC(=O)C(c2c[nH]c3ccccc23)=C1c1c[nH]c2ccccc12`, the residual activity turned out to be 106%.

As for `CN(C)C[C@H]1CCn2c(c(C3=C(c4cn(C)c5ccccc45)C(=O)NC3=O)c3ccccc32)C1`, the residual activity worked out at 105%.

In the case of `Cn1nc2c3c(cccc31)C(=O)c1ccccc1-2`, the residual activity stood at 103%.

Another assay deals with NEK6 (human) (UniProt Q9HC98). Described as above. To be noted: compound 0.5 µM; ATP 10 µM.
Chain of NEK6 (human) (Q9HC98 whole entry, looked up): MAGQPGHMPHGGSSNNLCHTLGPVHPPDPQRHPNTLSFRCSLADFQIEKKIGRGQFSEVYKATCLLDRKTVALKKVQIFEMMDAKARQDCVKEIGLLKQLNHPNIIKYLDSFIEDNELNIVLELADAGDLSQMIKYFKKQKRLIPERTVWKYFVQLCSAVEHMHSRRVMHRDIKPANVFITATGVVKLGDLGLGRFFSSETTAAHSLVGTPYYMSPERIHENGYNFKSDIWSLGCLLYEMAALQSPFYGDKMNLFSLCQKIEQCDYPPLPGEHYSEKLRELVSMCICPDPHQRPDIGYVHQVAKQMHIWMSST
Regarding `O=C1NC(=O)C(c2c[nH]c3ccccc23)=C1c1c[nH]c2ccccc12`, the residual activity is 101%.

Take `CN(C)C[C@H]1CCn2c(c(C3=C(c4cn(C)c5ccccc45)C(=O)NC3=O)c3ccccc32)C1`: the residual activity turned out to be 94.6%.

As to `Cn1nc2c3c(cccc31)C(=O)c1ccccc1-2`, the residual activity was 108%.

The target in the next assay is RPS6KA4 KD2 (human) (UniProt O75676). Described as above. To be noted: compound 0.5 µM; ATP 10 µM.
On to `O=C1NC(=O)C(c2c[nH]c3ccccc23)=C1c1c[nH]c2ccccc12`, for which the residual activity stood at 87.4%.

Turning to `CN(C)C[C@H]1CCn2c(c(C3=C(c4cn(C)c5ccccc45)C(=O)NC3=O)c3ccccc32)C1`, the residual activity came out at 33.3%.

Consider `Cn1nc2c3c(cccc31)C(=O)c1ccccc1-2`, for which the residual activity worked out at 105%.

A further assay addresses DSTYK (human) (UniProt Q6XUX3). The description is as above. To be noted: compound 0.5 µM; ATP 10 µM.
As for `O=C1NC(=O)C(c2c[nH]c3ccccc23)=C1c1c[nH]c2ccccc12`, the residual activity came out at 99.6%.

For `CN(C)C[C@H]1CCn2c(c(C3=C(c4cn(C)c5ccccc45)C(=O)NC3=O)c3ccccc32)C1`, the residual activity is 89.4%.

`Cn1nc2c3c(cccc31)C(=O)c1ccccc1-2`: the residual activity was 101%.

For another assay, the target named is TGFBR1 (human) (UniProt P36897). Described as above. To be noted: compound 0.5 µM; ATP 10 µM.
Chain of TGFBR1 (human) (P36897 whole entry, looked up): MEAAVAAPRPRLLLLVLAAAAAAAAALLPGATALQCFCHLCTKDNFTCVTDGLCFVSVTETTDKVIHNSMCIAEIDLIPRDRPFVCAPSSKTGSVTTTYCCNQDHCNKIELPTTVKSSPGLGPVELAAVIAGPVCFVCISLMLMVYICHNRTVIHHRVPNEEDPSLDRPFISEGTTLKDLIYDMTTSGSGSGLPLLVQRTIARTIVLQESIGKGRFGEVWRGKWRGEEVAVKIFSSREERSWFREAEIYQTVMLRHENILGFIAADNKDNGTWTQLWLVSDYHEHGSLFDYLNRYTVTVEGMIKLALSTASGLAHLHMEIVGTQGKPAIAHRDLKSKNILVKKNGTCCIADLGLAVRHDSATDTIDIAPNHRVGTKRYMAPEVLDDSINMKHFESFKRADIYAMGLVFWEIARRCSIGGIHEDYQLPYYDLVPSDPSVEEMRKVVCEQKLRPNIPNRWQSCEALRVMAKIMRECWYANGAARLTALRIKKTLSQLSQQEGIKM
`O=C1NC(=O)C(c2c[nH]c3ccccc23)=C1c1c[nH]c2ccccc12`: the residual activity amounted to 96.6%.

In the case of `CN(C)C[C@H]1CCn2c(c(C3=C(c4cn(C)c5ccccc45)C(=O)NC3=O)c3ccccc32)C1`, the residual activity came to 99.8%.

For the compound `Cn1nc2c3c(cccc31)C(=O)c1ccccc1-2`, the residual activity turned out to be 93.7%.

For the next assay, the target named is NEK7 (human) (UniProt Q8TDX7). Described as above. The settings on record: compound 0.5 µM; ATP 10 µM.
Take `O=C1NC(=O)C(c2c[nH]c3ccccc23)=C1c1c[nH]c2ccccc12`: the residual activity came out at 99.9%.

For the compound `CN(C)C[C@H]1CCn2c(c(C3=C(c4cn(C)c5ccccc45)C(=O)NC3=O)c3ccccc32)C1`, the residual activity is 100%.

As to `Cn1nc2c3c(cccc31)C(=O)c1ccccc1-2`, the residual activity turned out to be 93.1%.
